From patent publication US20250325552A1, “SUBSTITUTED THIADIAZOLYL DERIVATIVES AS DNA POLYMERASE THETA INHIBITORS” (IDEAYA Biosciences, Inc., priority 2020, published 2025)

Molecular target: Polθ theta (1-899) (hPolQ) (Homo sapiens (Human), UniProt O75417)
Assay: Biological Assay 1: Polθ ATPase activity, NADH oxidation-coupled enzymatic assay (10 nM enzyme, 30 min)
Format: biochemical
Settings: Polθ (1-899) 10 nM, 100 μM ATP, 300 nM dT50 ssDNA; Examples 1 to 268; read-out: ATPase NADH coupling:Standard Screening:hPolQ IC50
How it was run: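 Polθ (1-899) at 10 nM was preincubated with compound for 15 min at room temperature in 20 mM Tris pH 7.80, 80 mM KCl, 10 mM MgCl2. An equal volume of 100 μM ATP, 300 nM dT50 ssDNA and a PK/LDH–NADH coupling system was then added. A340 was read each minute for 30 min. IC50 came from rate slopes over 10-point series with a four-parameter fit.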

Sequence of Polθ theta (1-899) (hPolQ) (O75417 1-899): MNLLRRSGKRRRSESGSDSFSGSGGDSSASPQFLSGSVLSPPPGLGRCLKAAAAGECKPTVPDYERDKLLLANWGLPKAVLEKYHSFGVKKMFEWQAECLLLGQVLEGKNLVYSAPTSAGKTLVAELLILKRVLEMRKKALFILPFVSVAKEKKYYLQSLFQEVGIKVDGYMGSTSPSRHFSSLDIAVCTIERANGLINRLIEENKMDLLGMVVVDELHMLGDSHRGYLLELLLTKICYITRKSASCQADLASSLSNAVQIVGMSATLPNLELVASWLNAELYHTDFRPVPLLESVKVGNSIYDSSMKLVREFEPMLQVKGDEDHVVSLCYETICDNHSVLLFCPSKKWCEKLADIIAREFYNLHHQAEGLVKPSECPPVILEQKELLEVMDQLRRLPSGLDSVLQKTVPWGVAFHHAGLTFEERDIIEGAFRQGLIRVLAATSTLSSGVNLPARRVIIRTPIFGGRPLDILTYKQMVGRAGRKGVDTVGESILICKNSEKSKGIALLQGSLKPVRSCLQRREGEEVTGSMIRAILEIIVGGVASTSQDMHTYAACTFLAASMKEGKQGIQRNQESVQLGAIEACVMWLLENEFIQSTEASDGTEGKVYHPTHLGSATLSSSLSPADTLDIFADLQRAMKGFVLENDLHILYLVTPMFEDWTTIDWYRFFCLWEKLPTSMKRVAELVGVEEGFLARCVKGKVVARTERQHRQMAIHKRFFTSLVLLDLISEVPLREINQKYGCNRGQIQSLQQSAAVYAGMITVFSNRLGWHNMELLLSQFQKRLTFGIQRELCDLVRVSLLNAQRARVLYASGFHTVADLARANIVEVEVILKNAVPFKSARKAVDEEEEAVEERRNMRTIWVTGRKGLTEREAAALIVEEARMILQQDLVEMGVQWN

Row | IC50 | SMILES
1 | ≤ 200 nM | COc1cccc(F)c1-c1cc(C)ncc1C(=O)Nc1nnc(OCC23CCC(O)(CC2)CC3)s1 [Example 66, 4-(2-fluoro-6-methoxyphenyl)-N-(5-((4-hydroxybicyclo(2.2.2)octan-1-yl)methoxy)-1,3,4-thiadiazol-2-yl)-6-methylnicotinamide]
2 | ≤ 200 nM | COc1ccnc(COc2nnc(NC(=O)c3cnc(C)cc3-c3c(F)cccc3OC)s2)c1 [Example 67, 4-(2-fluoro-6-methoxyphenyl)-N-(5-((4-methoxypyridin-2-yl)methoxy)-1,3,4-thiadiazol-2-yl)-6-methylnicotinamide]
3 | ≤ 200 nM | COc1cnc(Cl)cc1-c1cc(C)ncc1C(=O)Nc1nnc(OCc2ccc([C@H](C)O)cn2)s1 [Example 68, (S)-2′-chloro-N-(5-((5-(1-hydroxyethyl)pyridin-2-yl)methoxy)-1,3,4-thiadiazol-2-yl)-5′-methoxy-6-methyl-(4,4′-bipyridine)-3-carboxamide]
4 | ≤ 200 nM | COc1cnc(Cl)cc1-c1cc(C)ncc1C(=O)Nc1nnc(OCc2ccc([C@@H](C)O)cn2)s1 [Example 69, (R)-2′-chloro-N-(5-((5-(1-hydroxyethyl)pyridin-2-yl)methoxy)-1,3,4-thiadiazol-2-yl)-5′-methoxy-6-methyl-(4,4′-bipyridine)-3-carboxamide]
5 | ≤ 200 nM | Cc1cc(-c2c(F)cccc2OC(F)F)c(C(=O)Nc2nnc(OCc3cnc(CO)cn3)s2)cn1 [Example 70, 4-(2-(difluoromethoxy)-6-fluorophenyl)-N-(5-((5-(hydroxymethyl)pyrazin-2-yl)methoxy)-1,3,4-thiadiazol-2-yl)-6-methylnicotinamide]
6 | 500 to 1000 nM | COc1ccccc1-c1cc(C)ncc1C(=O)Nc1nnc(OCc2ccc3c(n2)CCNC3)s1 [Example 71, 4-(2-methoxyphenyl)-6-methyl-N-(5-(5,6,7,8-tetrahydro-1,6-naphthyridin-2-ylmethoxy)-1,3,4-thiadiazol-2-yl)pyridine-3-carboxamide]
7 | ≤ 200 nM | COc1cccc(F)c1-c1cc(C)ncc1C(=O)Nc1nnc(OCc2cc(CO)ccn2)s1 [Example 72, 4-(2-fluoro-6-methoxyphenyl)-N-(5-((4-(hydroxymethyl)pyridin-2-yl)methoxy)-1,3,4-thiadiazol-2-yl)-6-methylnicotinamide]
8 | ≤ 200 nM | Cc1cc(-c2ccnc(Cl)c2)c(C(=O)Nc2nnc(OCc3ccc(C(C)(C)O)cn3)s2)cn1 [Example 73, 2′-chloro-N-(5-((5-(2-hydroxypropan-2-yl)pyridin-2-yl)methoxy)-1,3,4-thiadiazol-2-yl)-6-methyl-(4,4′-bipyridine)-3-carboxamide]
9 | ≤ 200 nM | COc1cnc(C)cc1-c1cc(C)ncc1C(=O)Nc1nnc(OCc2ccc(OC(C)C)cn2)s1 [Example 74, N-(5-((5-isopropoxypyridin-2-yl)methoxy)-1,3,4-thiadiazol-2-yl)-5′-methoxy-2′,6-dimethyl-(4,4′-bipyridine)-3-carboxamide]
10 | ≤ 200 nM | COc1cccc(F)c1-c1cc(C)ncc1C(=O)Nc1nnc(OCc2ccc(OC(C)C)cn2)s1 [Example 75, 4-(2-fluoro-6-methoxyphenyl)-N-(5-((5-isopropoxypyridin-2-yl)methoxy)-1,3,4-thiadiazol-2-yl)-6-methylnicotinamide]
11 | ≤ 200 nM | COc1cnc(C)cc1-c1cc(C)ncc1C(=O)Nc1nnc(OCc2ccc(C(C)(C)O)cn2)s1 [Example 76, N-(5-((5-(2-hydroxypropan-2-yl)pyridin-2-yl)methoxy)-1,3,4-thiadiazol-2-yl)-5′-methoxy-2′,6-dimethyl-(4,4′-bipyridine)-3-carboxamide]
12 | ≤ 200 nM | COc1c(-c2cc(C)ncc2C(=O)Nc2nnc(OCc3ccc(Cl)cn3)s2)ccnc1Cl [Example 77, 2′-chloro-N-(5-((5-chloropyridin-2-yl)methoxy)-1,3,4-thiadiazol-2-yl)-3′-methoxy-6-methyl-(4,4′-bipyridine)-3-carboxamide]
13 | ≤ 200 nM | COc1cnc(Cl)cc1-c1cc(C)ncc1C(=O)Nc1nnc(OCC23CC(F)(C2)C3)s1 [Example 78, 2′-chloro-N-(5-((3-fluorobicyclo(1.1.1)pentan-1-yl)methoxy)-1,3,4-thiadiazol-2-yl)-5′-methoxy-6-methyl-(4,4′-bipyridine)-3-carboxamide]
14 | ≤ 200 nM | COc1cccc(F)c1-c1cc(C)ncc1C(=O)Nc1nnc(OCc2ccc(C(C)(C)OC)cn2)s1 [Example 80, 4-(2-fluoro-6-methoxyphenyl)-N-(5-((5-(2-methoxypropan-2-yl)pyridin-2-yl)methoxy)-1,3,4-thiadiazol-2-yl)-6-methylnicotinamide]
15 | ≤ 200 nM | COc1cccc(F)c1-c1cnncc1C(=O)Nc1nnc(OCc2ccc(C(C)(C)O)cn2)s1 [Example 81, 5-(2-fluoro-6-methoxyphenyl)-N-(5-((5-(2-hydroxypropan-2-yl)pyridin-2-yl)methoxy)-1,3,4-thiadiazol-2-yl)pyridazine-4-carboxamide]

The remaining lines, values behind:

Row | SMILES | IC50
16 | COc1cnc(Cl)cc1-c1cc(C)ncc1C(=O)Nc1nnc(OCc2ccc3c(n2)OCCO3)s1 [Example 51, 2′-chloro-N-(5-((2,3-dihydro-[1,4]dioxino[2,3-b]pyridin-6-yl)methoxy)-1,3,4-thiadiazol-2-yl)-5′-methoxy-6-methyl-[4,4′-bipyridine]-3-carboxamide] | ≤ 200 nM
17 | COc1ccc(COc2nnc(NC(=O)c3cnc(C)cc3-c3cc(Cl)ccc3OC)s2)nc1 [Example 52, 4-(5-chloro-2-methoxyphenyl)-N-(5-((5-methoxypyridin-2-yl)methoxy)-1,3,4-thiadiazol-2-yl)-6-methylpyridine-3-carboxamide] | ≤ 200 nM
18 | COc1ccc(COc2nnc(NC(=O)c3cnc(C)cc3-c3ccccc3OC(F)F)s2)nc1 [Example 53, 4-(2-(difluoromethoxy)phenyl)-N-(5-((5-methoxypyridin-2-yl)methoxy)-1,3,4-thiadiazol-2-yl)-6-methylnicotinamide] | ≤ 200 nM
19 | COc1cccc(F)c1-c1cc(C)ncc1C(=O)Nc1nnc(OCc2ccc(CC3COC3)cn2)s1 [Example 54, 4-(2-fluoro-6-methoxyphenyl)-6-methyl-N-(5-((5-(oxetan-3-ylmethyl)pyridin-2-yl)methoxy)-1,3,4-thiadiazol-2-yl)nicotinamide] | ≤ 200 nM
20 | COc1cccc(F)c1-c1cc(C)ncc1C(=O)Nc1nnc(OCc2ccc(CCO)cn2)s1 [Example 55, 4-(2-fluoro-6-methoxyphenyl)-N-(5-((5-(2-hydroxyethyl)pyridin-2-yl)methoxy)-1,3,4-thiadiazol-2-yl)-6-methylnicotinamide] | ≤ 200 nM
21 | Cc1cc(-c2c(F)cccc2OC(F)F)c(C(=O)Nc2nnc(OCc3ccc([C@H](C)O)cn3)s2)cn1 [Example 56, 4-(2-(difluoromethoxy)-6-fluorophenyl)-N-(5-((5-((S)-1-hydroxyethyl)pyridin-2-yl)methoxy)-1,3,4-thiadiazol-2-yl)-6-methylnicotinamide] | ≤ 200 nM
22 | Cc1cc(-c2c(F)cccc2OC(F)F)c(C(=O)Nc2nnc(OCc3ccc([C@@H](C)O)cn3)s2)cn1 [Example 57, 4-(2-(difluoromethoxy)-6-fluorophenyl)-N-(5-((5-((R)-1-hydroxyethyl)pyridin-2-yl)methoxy)-1,3,4-thiadiazol-2-yl)-6-methylnicotinamide] | ≤ 200 nM
23 | COc1cnc(Cl)cc1-c1cc(C)ncc1C(=O)Nc1nnc(OCc2ccc(C(C)(C)O)cn2)s1 [Example 58, 2′-chloro-N-(5-((5-(2-hydroxypropan-2-yl)pyridin-2-yl)methoxy)-1,3,4-thiadiazol-2-yl)-5′-methoxy-6-methyl-[4,4′-bipyridine]-3-carboxamide] | ≤ 200 nM
24 | Cc1cc(-c2ccccc2OC(F)F)c(C(=O)Nc2nnc(OCc3ccc(C(C)(C)O)cn3)s2)cn1 [Example 59, 4-(2-(difluoromethoxy)phenyl)-N-(5-((5-(2-hydroxypropan-2-yl)pyridin-2-yl)methoxy)-1,3,4-thiadiazol-2-yl)-6-methylnicotinamide] | ≤ 200 nM
25 | COc1cnc(Cl)cc1-c1cc(C)ncc1C(=O)Nc1nnc(OCc2ccc(CO)cn2)s1 [Example 60, 2′-chloro-N-(5-((5-(hydroxymethyl)pyridin-2-yl)methoxy)-1,3,4-thiadiazol-2-yl)-5′-methoxy-6-methyl-[4,4′-bipyridine]-3-carboxamide] | ≤ 200 nM
26 | COc1cccc(F)c1-c1cc(C)ncc1C(=O)Nc1nnc(OCC23CC(O)(C2)C3)s1 [Example 61, 4-(2-fluoro-6-methoxyphenyl)-N-(5-((3-hydroxybicyclo(1.1.1)pentan-1-yl)methoxy)-1,3,4-thiadiazol-2-yl)-6-methylnicotinamide] | ≤ 200 nM
27 | COc1ccccc1-c1cc(C)ncc1C(=O)Nc1nnc(OCc2ncccc2CO)s1 [Example 62, N-(5-((3-(hydroxymethyl)pyridin-2-yl)methoxy)-1,3,4-thiadiazol-2-yl)-4-(2-methoxyphenyl)-6-methylpyridine-3-carboxamide] | 200 to 500 nM
28 | COc1ccc(F)cc1-c1cc(C)ncc1C(=O)Nc1nnc(OCc2ccc(C(C)(C)O)cn2)s1 [Example 63, 4-(5-fluoro-2-methoxyphenyl)-N-(5-((5-(2-hydroxypropan-2-yl)pyridin-2-yl)methoxy)-1,3,4-thiadiazol-2-yl)-6-methylnicotinamide] | ≤ 200 nM
29 | COc1cccc(F)c1-c1cnncc1C(=O)Nc1nnc(OCc2ccc(Cl)cn2)s1 [Example 64, N-(5-((5-chloropyridin-2-yl)methoxy)-1,3,4-thiadiazol-2-yl)-5-(2-fluoro-6-methoxyphenyl)pyridazine-4-carboxamide] | ≤ 200 nM
30 | COc1cccc(F)c1-c1cc(C)ncc1C(=O)Nc1nnc(OCC23CCC(F)(CC2)CC3)s1 [Example 65, 4-(2-fluoro-6-methoxyphenyl)-N-(5-((4-fluorobicyclo(2.2.2)octan-1-yl)methoxy)-1,3,4-thiadiazol-2-yl)-6-methylnicotinamide] | ≤ 200 nM
